A word on the EC50: it is the concentration needed to bring the measured effect to its halfway point. Read a high EC50 as lower potency in that assay. Broadly, the Emax is the maximal effect, on the per cent scale that the assay sets. In general, mortality refers to the share of the test organisms that died. A higher mortality goes with a strong lethal effect.

SMILES strings stand for the structures. Like-named read-outs stand apart in the source and are kept apart here.

We go through 4 molecules from patent US20090054376A1, “BENZOFURAN DERIVATIVES WITH THERAPEUTIC ACTIVITIES” (Pharmos Corporation, priority 2005, published 2009).

In one experiment the test system is iNOS. In words: Gene expression in LPS activated RAW 264.7 macrophages, iNOS. It is filed as cell-based, mouse. The conditions noted are these: RAW 264.7, 10 μM, LPS 1 μg/ml, RNA 3 hrs after activation, vs vehicle treated activated cells. The method, then: (§1) RAW 264.7 macrophages, a mouse cell line (ATCC # TIB 71), were grown in Dulbecco's modified Eagle's medium (DMEM) with 4 mM L-glutamine adjusted to contain 1.5 g/L sodium bicarbonate, 4.5 g/L glucose, and 10% heat inactivated fetal bovine serum. Cells were grown in tissue culture flasks and seeded at appropriate density into 6 wells tissue culture plates. Four million Raw cells in half a milliliter were stimulated with 1 μg/ml LPS E. coli 055:B5 (DIFCO Laboratories). The mouse macrophages were pre-treated for one hour with controls or 10 μM of test compounds, and later on activated with LPS. RNA samples were extracted from the cells 3 hrs after activation and gene expression levels were analyzed by real-time RT-PCR. In parallel, supernatants were collected and secretion of inflammatory mediators was analyzed using ELISA techniques according to the instructions of the kit manufacturer.
(§2) Total RNA is prepared using SV total RNA isolation system (Promega). The cells were homogenized in lysis buffer. The lysates were transferred to an RNA isolation column, treated with DNAse, washed and eluted according to kit instructions. RNA concentrations were determined using GeneQuant II (Pharmacia-Amersham). Complementary DNA (cDNA) was synthesized from total RNA using […] II reverse transcriptase (Life Technologies). 2 μg of total RNA were combined with an oligo (dT)15 primer, 0.5 mM dNTP mix, 8 units of reverse transcriptase and other reaction components up to a final volume of 20 μl, according to the kit instructions. The reaction mixture was incubated at 42° C. for 45 min and inactivated at 70° C. for 15 minutes. Quantitative real-time RT-PCR included 1 μl of the cDNA, 300 nM of the appropriate forward and reverse primers (according to the gene monitored) and 7.5 μl of the reaction mix containing buffer, nucleotides, Taq polymerase and SYBER green (SYBER Green master mix, Applied Biosystems), in a total reaction volume of 15 μl. Gene amplification was obtained using the GeneAmp 5700 sequence detection system (Applied Biosystems). Amplification included one stage of 10 minutes at 95° C. followed by 40 cycles of a 2-steps loop: 20 seconds at 95° C., and 1 minute at 60° C. During each annealing step, the amount of the amplified product was measured by the fluorescence of the double strand DNA binding dye, SYBER Green. The cycle of threshold (CT), representing the PCR cycle at which an increase in fluorescence above a baseline signal can be first detected, was determined for each product. A delay of one PCR cycle in the CT is translated into a two-fold decrease in starting template molecules and vice versa. The changes in the CT of the specific gene product were normalized to the changes in the CT of housekeeping cyclophilin or GAPDH as reference genes. Results were expressed as fold increase of gene expression in treated or untreated activated cells above the resting cells, after normalization to cyclophilin or GAPDH. Cells were also tested for viability to confirm that any effect on gene expression was indeed due to modulation of transcription of a specific target and not to cytoxicity.
(§3) Results were further expressed as percent inhibition of gene expression in compound treated activated cells over vehicle “treated” activated cells. Since the modulation of IL-10 and TNF-α gene expression by the compounds of the invention is relatively minor, it is not reported. […] Inhibition above 50% was considered significant.

In experiment [1] the test system is carrageenan induced inflammatory pain and paw edema. As to the kind of experiment: Inflammatory pain and paw edema induced by carrageenan. The format is in vivo, Male Sprague Dawley rats. The following applies: Rattus norvegicus, ip, 3 hours; for inhibition in vivo at 3 mg/kg: 3 mg/kg i.p. (one asterisk); for inhibition in vivo at 10 mg/kg: 10 mg/kg i.p. The method, then: Male Sprague Dawley rats (average body weight 200 g, Harlan, Israel) were transiently sedated by placement on dry ice for the duration of the injections. Rats were injected subcutaneously, in the subplantar region of one (right) paw with 0.1 ml of 2% w/v λ Carrageenan in sterile saline. […] Test compounds were, unless otherwise stated, administered i.p. at initial single dose of 3, 10 or 20 mg/kg, and volume dose of 5 ml/kg, immediately after the carrageenan injection. Selected compounds were also tested p.o. following oral gavage. Vehicle and celecoxib treated animals were used as controls. Each treatment group comprised at least seven animals.
Before induction of inflammatory pain and three hours after injection, the animals reactions to pain stimuli were tested in two systems. The first stimulus was thermal and assessed by the Plantar Test according to Hargreaves, using Ugo Basile Model 7370. The scale was set to an intensity of 50 arbitrary units. The latency time till the animal lift a paw as a reaction to the thermal stimulus was recorded for both the inflamed and non-inflamed hind paws. The second stimulus was mechanical (tactile) and assessed using a Dynamic Plantar Sesthesiomether (Ugo Basile Model 73400-002). […] Finally, the impact on paw edema was assessed. Paw thickness was measured using a dial thickness gauge (Spring-dial, constant low pressure gauge, Mitutoyo, TG/L-1, 0.01 mm) and paw volume was measured using a plethysmometer (model #7150, Ugo Basile, Italy). At the end of the study, animals were euthanized.
The results are measured as the differences between the two hind paws at time 0 and 3 hours both as ALT, for the latency time in the thermal part of the study, and as ΔForce, for the mechanical part of the study. The paw volume is expressed as percent from vehicle treated animals. Results are expressed as mean±SEM for each treatment group and the differences among those groups are analyzed by analysis of variance (ANOVA) followed by post-hoc Tukey's test.
Results refer to i.p. treatment with 10 mg/kg. Results marked with one asterisk refer to a dose 3 mg/kg, whereas two asterisks refer to 20 mg/kg. Celecoxib is included as reference.

In the next experiment the test system is IL-1β. As to the kind of experiment: Gene expression in LPS activated RAW 264.7 macrophages, IL-1β. The format is cell-based, mouse. The following applies: RAW 264.7, 10 μM, LPS 1 μg/ml, RNA 3 hrs after activation, vs vehicle treated activated cells. The method, then:
as §1, §2, §3

Experiment [2] concerns visceral pain writhing responses. In words: Visceral pain, acetic acid induced writhing responses. It is filed as in vivo, Male ICR mice. The conditions noted are these: Mus musculus, iv, single dose 2 mg/kg i.v., compared to untreated group; read-out: Percent Inhibition of Visceral Pain Writhing Responses. A general note: In writhing tests, fewer writhes than in controls are read as antinociception.

Another experiment deals with MCP-1. In words: Gene expression in LPS activated RAW 264.7 macrophages, MCP-1. It is filed as cell-based, mouse. The following applies: RAW 264.7, 10 μM, LPS 1 μg/ml, RNA 3 hrs after activation, vs vehicle treated activated cells. The method, then: as §1, §2, §3
In the next experiment the target is T1, Human CB2 Receptor (Homo sapiens, UniProt P34972).
T1 construct: host or cells: Sf9 or HEK-293 cells (membranes)
T1 sequence (P34972 whole entry): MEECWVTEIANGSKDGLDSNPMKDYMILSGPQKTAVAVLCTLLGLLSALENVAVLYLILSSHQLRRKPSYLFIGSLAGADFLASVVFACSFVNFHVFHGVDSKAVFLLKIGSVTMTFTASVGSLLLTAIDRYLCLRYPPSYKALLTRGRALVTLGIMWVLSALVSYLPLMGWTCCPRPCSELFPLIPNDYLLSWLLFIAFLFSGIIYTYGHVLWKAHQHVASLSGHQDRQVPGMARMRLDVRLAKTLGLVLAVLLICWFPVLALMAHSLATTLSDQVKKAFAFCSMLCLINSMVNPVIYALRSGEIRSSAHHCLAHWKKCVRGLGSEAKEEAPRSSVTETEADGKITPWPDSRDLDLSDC
In words: [35S]GTPγS-binding assay, hCB2. The format is biochemical. The conditions noted are these: GTPγS. The method, then: (§4) Functional activity of compounds of the invention toward the cannabinoid receptors was determined by stimulation of [^35S]-GTPγS binding using membranes from HEK-293 cells expressing the hCB1 receptor and membranes expressing the hCB2 receptor derived from either Sf9 (PerkinElmer) or from HEK-293 cells. Activities were compared to that of the known cannabinoid full agonist CP55940 (Alexis). The purpose of this experiment is to determine the potency of the compounds of the invention as agonists or antagonists toward each of the receptor tested.
(§5) [^35S]-GTPγS binding reactions were performed at 30° C. in 96-well plates containing 5-10 μg membrane protein suspended in 0.1 ml binding buffer [20 mM HEPES-NaOH, pH 7.4, 5 mM MgCl2, 100 mM NaCl, 0.2% (w/v) bovine serum albumin] supplemented with 50 μM GDP and 0.06 nM-10 μM of the compound being tested. Binding was initiated by the addition of [^35S]GTPγS (0.3 nM final concentration). Incubations were performed for 90 minutes and were terminated by filtration on GF/C filter plates (PerkinEimer). Filters were washed ten times with ice-cold wash buffer (20 mM HEPES-NaOH, pH 7.4, 10 mM sodium pyrophosphate). Non-specific binding was measured in the presence of 15 μM GTPγS.
(§6) Assays were performed in duplicates. Data was analyzed by plotting on the X axis the log concentration against percent of specific [^35S]GTPγS binding out of basal [^35S]GTPγS binding on the Y axis, non-linear regression is then performed using GraphPad Prism, version 3.0 (GraphPad, San Diego, Calif.) to calculate the EC50 and Emax of the compound. The EC50 value represents the concentration at which there is 50% [^35S]GTPγS binding and the Emax value the upper plateau of the curve.
On the technique in general: Binding of GTPγS marks nucleotide exchange on a G protein.

The next experiment addresses T2, Human CB1 Receptor (Homo sapiens, UniProt P21554).
T2 construct: expressed in transfected cells; host or cells: HEK-293 cells (membranes)
In words: [35S]GTPγS-binding assay, hCB1. The conditions noted are these: NB = no binding; for Emax: upper plateau of curve. The format is biochemical. The method, then: as §4, §5, §6

In experiment [3] the test system is TNBS induced inflammatory bowel disease. As to the kind of experiment: TNBS induced inflammatory bowel disease. The format is in vivo, Female Balb/C mice. The conditions noted are these: 10 mg/kg. The method, then: Female Balb/C mice (average body weight 20 g, Harlan, Israel) were lightly sedated and challenged rectally, by instillation with 70 μl of 2.5% TNBS (Sigma) dissolved in 50% ethanol, to induce intestinal inflammation and colitis. Animals were weighted before the beginning of the study and treatment was administered i.p. on a daily basis for six days at 20 mg/kg and volume dosage of 5 ml/kg. During the study period of up to 7 days, the following parameters were daily monitored and recorded: body weight, presence of blood in the stool and stool consistency. These findings are scored according to Table 6 [Murthy S.N. et al., Dig. Dis. Sci. 38:1722-34, 1993].
On the last day of the study, animals were euthanized. Abdomen was open and the colon was sectioned at the level of the caecum and the rectum. The colon was weighted and its length was measured. The whole column was excised, slited longitudinally, and examined under a magnifying lens. Any visible damage was recorded and scored for gross pathology according to Wong [Wong et al., J. Pharm. Exp. Ther. 274: 475-80, 1995]. Namely, a score of 0 indicates no damage, 1 indicates localized hyperemia and/or edema, 2 indicates at least two sites of hyperemia and/or edema, 3 indicates localized erosion, 4 indicates localized ulcer and 5 indicates either an erosion site or ulcer extending for more than 2 cm along the colon or at least two sites of erosion or ulcer. Finally, the entire colon was fixed in 4% formaldehyde for histopathological evaluation.
Each treatment group comprised at least seven animals. The following groups served as negative controls: naïve animals, sham animals that received 70 μl of 50% ethanol without TNBS, and TNBS challenged untreated and vehicle treated animals. A group of animals receiving 10 mg/kg sulfasalazine served as positive controls. Sulfasalazine is a standard anti-inflammatory drug used for the treatment of mild to moderate ulcerative colitis and Crohn's disease, and as adjunctive therapy in the treatment of severe ulcerative colitis. This drug is also used for the treatment of non-IBD related disorders, such as rheumatoid arthritis and ankylosing spondylitis. The recognized side effect of this medicament is its hepatotoxicity upon chronic treatment.

The mark [4] stands for this setting: mechanical stimulus, read-out: Percent Inhibition of Inflammatory Pain Responses, ΔForce.
Where [5] appears, read: thermal stimulus, read-out: Percent Inhibition of Inflammatory Pain Responses, ΔLT.
Setting [6] is: Human CB2 Receptor, NB = no binding.

T2 sequence (P21554 whole entry): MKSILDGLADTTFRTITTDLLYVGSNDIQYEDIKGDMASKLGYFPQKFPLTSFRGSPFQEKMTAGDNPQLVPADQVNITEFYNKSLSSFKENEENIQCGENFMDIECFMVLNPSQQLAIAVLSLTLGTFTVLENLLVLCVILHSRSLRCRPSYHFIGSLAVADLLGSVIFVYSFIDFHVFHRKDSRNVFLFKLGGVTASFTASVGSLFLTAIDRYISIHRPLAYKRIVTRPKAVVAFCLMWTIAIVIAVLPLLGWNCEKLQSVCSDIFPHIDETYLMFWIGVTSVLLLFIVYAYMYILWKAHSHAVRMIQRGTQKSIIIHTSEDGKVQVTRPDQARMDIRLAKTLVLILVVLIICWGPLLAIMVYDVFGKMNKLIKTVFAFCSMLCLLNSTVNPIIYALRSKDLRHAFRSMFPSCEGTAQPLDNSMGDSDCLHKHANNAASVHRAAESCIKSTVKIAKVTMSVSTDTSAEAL

Turning to `CCCCCCC(C)(C)c1cc(O)c2c(c1)OC1CCCCC21` (stereo not shown) [Compound C6S-1, 3-(1,1-Dimethylheptyl)-5a,6,7,8,9,9a-hexahydro-dibenzofuran-1-ol], the “Percent inhibition of gene expression, iNOS” value with iNOS is “NO (NO indicates that the compound tested did not significantly affect the transcription of the gene assessed and that its activity is comparable to vehicle, within ±20% from this control)”. For the same molecule, the inhibition in vivo at 20 mg/kg in experiment [1] (20 mg/kg i.p. (two asterisks), reduction in paw swelling, read-out: Percent Inhibition of Inflammatory Pain Responses, Edema) came to 48%. Besides, the “Percent inhibition of gene expression, IL-1β” value in the experiment on IL-1β is “NO (NO indicates that the compound tested did not significantly affect the transcription of the gene assessed and that its activity is comparable to vehicle, within ±20% from this control)”. Moreover, in experiment [2], the inhibition in vivo at 2 mg/kg was 39%. Also, the “Percent inhibition of gene expression, MCP-1” value in the experiment with MCP-1 turned out to be 66%.
Regarding `CCCCCCC(C)(C)c1cc(O)c2c(c1)OC1CC(C)(C)CCC21` (stereo not shown) [Compound C6S-17, 3-(1,1-dimethylheptyl)-7,7-dimethyl-5a,6,7,8,9,9a-hexahydro-dibenzofuran-1-ol], the inhibition in vivo at 3 mg/kg was 37% in experiment [1] (setting [4]); 44% in experiment [1] (reduction in paw swelling, read-out: Percent Inhibition of Inflammatory Pain Responses, Edema); 60% in experiment [1] (setting [5]). The EC50 on Human CB2 Receptor (setting [6]) was determined as 4 nM; at Human CB1 Receptor it was 2880 nM. For the same molecule, the Emax on Human CB2 Receptor (Human CB2 Receptor, upper plateau of curve, NB = no binding) was 43%; on Human CB1 Receptor it was -25%. The “agonistic activity toward cannabinoid receptors (in words)” value on Human CB2 Receptor (hCB1 and hCB2) is listed as “agonists specific toward the CB2 receptor”. Further, in experiment [2], the inhibition in vivo at 2 mg/kg was 38%.
`O=C(O)c1cc(/N=N/c2ccc(S(=O)(=O)Nc3ccccn3)cc2)ccc1O` [sulfasalazine, reference compound]: the “regained normal weight on” value in experiment [3] was 6 days. The “transient loss in body weight” value in experiment [3] (one day after TNBS instillation) worked out at 10%. In experiment [3] (untreated 60%), this molecule had a mortality of 0%.
As for `CCCCC(C)(C)c1cc(OC(=O)C=CC(=O)O)c2c3c(oc2c1)CCCC3` [Compound C6M-8, But-2-enedioic acid mono-[3-(1,1-dimethylpentyl)-6,7,8,9-tetrahydro-dibenzofuran-1-yl]ester], the “Percent inhibition of gene expression, iNOS” value with iNOS is 66%. For the same molecule, the inhibition in vivo at 10 mg/kg in experiment [1] (setting [4]) turned out to be 20%; in experiment [1] (setting [5]), 45%. In addition, the “Percent inhibition of gene expression, IL-1β” value in the experiment with IL-1β was 51%. Further, the EC50 on Human CB2 Receptor (setting [6]) is > 10000 nM; on Human CB1 Receptor it was 0.25 nM. Besides, the Emax at Human CB1 Receptor was -25%. For the same molecule, the “Percent inhibition of gene expression, MCP-1” value with MCP-1 came to 85%.
